Data: US20240217946A1, “ANTIDEPRESSANT AND ANXIOLYTIC SUBSTITUTED CINNAMAMIDE COMPOUND” (TASLY PHARMACEUTICAL GROUP CO., LTD., priority 2021, published 2024)
Values belong to the molecule of their own block, whether it stands above or below them.

Columns and labels:
[1] = system: DA reuptake in rat brain synaptosomes; experiment: 3H-DA reuptake by rat brain synaptosomes; format: biochemical; details: 3H-DA 10 nM, rat brain synaptosomes; read-out: DA inhibition rate % IC50
Text: At present, it is believed that absolute or relative deficiencies of the central monoamine neurotransmitters 5-hydroxytryptamine (5-HT), norepinephrine (NA) and dopamine (DA) are closely related to depression and anxiety. This experiment was designed to evaluate, by the method of in vitro monoamine reuptake, the inhibitory effect of two samples of tested compound I-5 and compound M2 on reuptake of 5-HT, NA and DA in rat brain synaptosomes. The preparation of in vitro SD rat brain synaptosomes and isotopic tracer method were employed to investigate IC50 of inhibition of monoamine reuptake of DA, 5-HT and NA in two tested samples, in order to explore the possible mechanism of antidepressant and anxiolytic effects of compound I-5 and compound M2.
Synaptosomes were separated using methods in literature to prepare brain synaptosomes. SD rats were rapidly decapitated with a small animal decapitator. After decapitation, brains were taken out quickly and precooled in an ice-water mixture, and the pia mater and vascular tissue were removed. Brain tissue was taken out. 10 times volume (ml/g) of 10 mM Tris HCl buffer (containing 0.32 M sucrose, pH 7.4) was added, an ultrasonic cell pulverizer was used for homogenization (maintaining at a low temperature), and the brain tissue was homogenized and centrifuged for 10 min (4° C., 1,000 g). After balanced centrifugation (1500 g, 10 min) at 4° C., precipitate was discarded, then supernatant was taken, and centrifugation (20000 g) was performed again for 30 min. The supernatant was discarded and the precipitate, i.e. crude extract of synaptic corpuscles, was retained. […] The precipitate was suspended in a small amount of Kreb's buffer (NaCl 118 mM, KCl 4.7 mM, CaCl2) 2.5 mM, MgSO4 1.2 mM, KH2PO4 1.2 mM, NaHCO325 mM and Glucose 11.1 mM, pH 7.2-7.4), BCA method was used for protein quantification, and the operation steps were as described in the description. […]
The percentage inhibition of isotope ligand binding by each compound was calculated according to the following equation: […]

ICR mice = experiment: Elevated plus maze experiment in mice, single administration; format: in vivo; details: for OE % / OT %: 30 min after single administration; for anxiolytic activity in elevated plus maze vs solvent control group: comparative study, single intragastric administration of 20 mg/kg
Description: 50 male ICR mice were randomly divided into 5 groups (a solvent control group, estazolam group, M2 high dosage group, M2 medium dosage group, M2 low dosage group), with 10 mice in each group. The compound M2 high, medium and low dosage groups were intragastrically administered at 20 mg/kg. 10 mg/kg and 5 mg/kg, respectively; the positive drug estazolam was intragastrically administered at 2.5 mg/kg; and the solvent control group was gavaged with an equal volume of solvent. Behavior test was performed in each group 30 min after single administration. The experiments were required to be conducted between 8:00 am and […], and all animals entered the test laboratory on the previous day.
The laboratory was dimly lit (with the lowest brightness that can distinguish the subtle activities of mice at a distance of 1.5 m) and the brightness was kept constant, with a room temperature of about 20° C., and kept quiet. Before the maze test, each mouse was placed in a 35 cm*10 cm*5 cm plastic box and left to explore freely for 5 min and then quickly placed at the central platform of an elevated plus maze, with its head facing one of the open arms, and the following indexes were recorded upon release. Each mouse was tested for 5 min. Observers observed and recorded animal activities at a distance of 1.5 m. At intervals, the maze was wiped with a wet cloth to remove feces, and then wiped with a dry cloth before a next mouse was tested.
• (1) The number of open arm entries (OE): the number of entries into any open arm, based on the fact that all four claws of the mouse entered the arm, and a complete exit of one claw from the arm indicated the completion of the entry activity; • (2) open arm time (OT): the time of entering an open arm, with the unit of seconds; • (3) the number of close arm entries (CE): the number of entries into any close arm, based on the fact that all four claws of the mouse entered the arm; • (4) close arm time (CT): the time of entering a close arm, with the unit of seconds; • (5) percentage of open arm time: OT %=OT/(OT+CT)*100%; and • (6) percentage of open arm entries: OE %=OE/(OE+CE)*100%.
70 male ICR mice were randomly divided into 7 groups (a solvent control group, estazolam group, compound M2 group, compound II-3 group, compound II-4 group, compound II-5 group, and compound II-10 group), with 10 mice in each group. The dosage of M2 and its four structurally similar compounds was determined as 20 mg/kg according to the experimental results of 3.1: the positive drug estazolam was administered intragastrically at 2.5 mg/kg; and the solvent control group was gavaged with an equal volume of solvent. Behavior test was performed in each group 30 min after single administration. The experiments were required to be conducted between 8:00 am and […], and all animals entered the test laboratory on the previous day.
The behavioral test method and behavioral observation indexes were the same as those in 3.1.
Data was expressed as mean±standard (mean±SD) difference, and statistics of data differences were made by one-way analysis of variance (ANOVA) or nonparametric test, and differences between groups were determined by P<0.05.

[2] = comparative study (Table 13), 20 mg/kg i.g.
[3] = dosage exploration study (Table 12), 5 mg/kg i.g.
[4] = dosage exploration study (Table 12), 10 mg/kg i.g.
[5] = dosage exploration study (Table 12), 20 mg/kg i.g.

IC50 [1]: 37.3 ± 1.97 nM
SMILES: NC(=O)/C=C/c1cc2c(c(C(F)(F)F)c1)OCO2 [Compound M2]
OE % (ICR mice; [2]): 57.94 ± 11.72 %
OT % (ICR mice; [2]): 57.36 ± 8.77 %
anxiolytic activity in elevated plus maze vs solvent control group (ICR mice): significant anxiolytic activity
OE % (ICR mice; [3]): 35.46 ± 10.13%
OT % (ICR mice; [3]): 38.52 ± 12.19%
OE % (ICR mice; [4]): 36.13 ± 14.12%
OT % (ICR mice; [4]): 35.92 ± 13.11%
OE % (ICR mice; [5]): 38.47 ± 7.13 %
OT % (ICR mice; [5]): 44.60 ± 9.33 %
effective dosage for single administration (anxiolytic) (ICR mice; mice, elevated plus maze): 20 mg/kg

IC50 [1]: 26 ± 1.33 nM
SMILES: CC(C)CNC(=O)/C=C/c1cc2c(c(C(F)(F)F)c1)OCO2 [Compound I-5]
OE % (ICR mice; [2]): 47.01 ± 6.30 %
OT % (ICR mice; [2]): 46.70 ± 9.98 %
anxiolytic activity in elevated plus maze vs solvent control group (ICR mice): significant anxiolytic activity
